Source: PubChem BioAssay (NCI)
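Five concentrations, 48 hours, 96-well plates. The concentration for 50% growth inhibition is given as GI50. TGI: concentration producing complete growth inhibition.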

Key:
Test in all cases: NCI-60 cell line screen, 48 h
RPMI-8226 leukemia = system: RPMI-8226 leukemia
T-47D breast = system: T-47D breast
SK-MEL-28 melanoma = system: SK-MEL-28 melanoma
786-0 renal = system: 786-0 renal
EKVX NSCLC = system: EKVX NSCLC
OVCAR-8 ovarian = system: OVCAR-8 ovarian
HCT-15 colon = system: HCT-15 colon
BT-549 breast = system: BT-549 breast
KM12 colon = system: KM12 colon
SK-MEL-2 melanoma = system: SK-MEL-2 melanoma
UACC-62 melanoma = system: UACC-62 melanoma
TK-10 renal = system: TK-10 renal
OVCAR-5 ovarian = system: OVCAR-5 ovarian
SR leukemia = system: SR leukemia
HCC-2998 colon = system: HCC-2998 colon
NCI-H23 lung = system: NCI-H23 lung
SF-539 CNS = system: SF-539 CNS
COLO 205 colon = system: COLO 205 colon
HOP-92 NSCLC = system: HOP-92 NSCLC
SK-MEL-5 melanoma = system: SK-MEL-5 melanoma
OVCAR-4 ovarian = system: OVCAR-4 ovarian
DU-145 prostate = system: DU-145 prostate
SNB-75 CNS = system: SNB-75 CNS
LOX IMVI melanoma = system: LOX IMVI melanoma
SF-295 CNS = system: SF-295 CNS
MDA-MB-435 = system: MDA-MB-435
HT29 colon = system: HT29 colon
SW-620 colon = system: SW-620 colon
NCI-H522 lung = system: NCI-H522 lung
CAKI-1 renal = system: CAKI-1 renal
K-562 leukemia = system: K-562 leukemia
U251 CNS = system: U251 CNS
M14 melanoma = system: M14 melanoma
UACC-257 melanoma = system: UACC-257 melanoma
NCI-H226 lung = system: NCI-H226 lung
NCI-H460 lung = system: NCI-H460 lung
HCT-116 colon = system: HCT-116 colon
MDA-MB-468 breast = system: MDA-MB-468 breast
IGROV1 ovarian = system: IGROV1 ovarian
MDA-MB-231 breast = system: MDA-MB-231 breast
ACHN renal = system: ACHN renal
SK-OV-3 ovarian = system: SK-OV-3 ovarian
CCRF-CEM leukemia = system: CCRF-CEM leukemia
MOLT-4 leukemia = system: MOLT-4 leukemia
HL-60(TB) leukemia = system: HL-60(TB) leukemia
SN12C renal = system: SN12C renal
RXF 393 renal = system: RXF 393 renal
UO-31 renal = system: UO-31 renal
A549 NSCLC = system: A549 NSCLC
OVCAR-3 ovarian = system: OVCAR-3 ovarian
MCF7 breast = system: MCF7 breast
PC-3 prostate = system: PC-3 prostate
A498 renal = system: A498 renal
HS 578T breast = system: HS 578T breast
SNB-19 CNS = system: SNB-19 CNS
MALME-3M melanoma = system: MALME-3M melanoma
SF-268 CNS = system: SF-268 CNS
HOP-62 NSCLC = system: HOP-62 NSCLC

## O=C(c1ccc(Cl)cc1)C1[C@H](c2ccc(Br)cc2)[C@@H](c2ccccc2)NC12C(=O)Nc1ccc(Cl)cc12 (stereo partly specified)
RPMI-8226 leukemia
  GI50: 1.99 µM
  TGI: 13.2 µM
T-47D breast
  GI50: 2.13 µM
  TGI: 9.66 µM
SK-MEL-28 melanoma
  GI50: 5.78 µM
  TGI: 12.2 µM
786-0 renal
  GI50: 0.905 µM
  TGI: 1.89 µM
EKVX NSCLC
  GI50: 4.03 µM
  TGI: 11.7 µM
OVCAR-8 ovarian
  GI50: 5.46 µM
  TGI: 12.8 µM
HCT-15 colon
  GI50: 2.15 µM
  TGI: 8.97 µM
BT-549 breast
  GI50: 2.71 µM
  TGI: 9.33 µM
KM12 colon
  GI50: 2.17 µM
  TGI: 9.98 µM
SK-MEL-2 melanoma
  GI50: 5.51 µM
  TGI: 12.1 µM
UACC-62 melanoma
  GI50: 2.21 µM
  TGI: 9.1 µM
TK-10 renal
  GI50: 5.49 µM
  TGI: 12.2 µM
OVCAR-5 ovarian
  GI50: 5.95 µM
  TGI: 12.6 µM
SR leukemia
  GI50: 1.63 µM
  TGI: 9.55 µM
HCC-2998 colon
  GI50: 1.63 µM
  TGI: 7.02 µM
NCI-H23 lung
  GI50: 3.98 µM
  TGI: 11.7 µM
SF-539 CNS
  GI50: 6.41 µM
  TGI: 13.1 µM
COLO 205 colon
  GI50: 5.85 µM
  TGI: 14.2 µM
HOP-92 NSCLC
  GI50: 2.3 µM
  TGI: 9.31 µM
SK-MEL-5 melanoma
  GI50: 7.68 µM
  TGI: 15 µM
OVCAR-4 ovarian
  GI50: 3.65 µM
  TGI: 11.9 µM
DU-145 prostate
  GI50: 5.9 µM
  TGI: 13.6 µM
SNB-75 CNS
  GI50: 2.45 µM
  TGI: 11.6 µM
LOX IMVI melanoma
  GI50: 1.83 µM
  TGI: 10.1 µM
SF-295 CNS
  GI50: 2.75 µM
  TGI: 10.1 µM
MDA-MB-435
  GI50: 2.81 µM
  TGI: 9.75 µM
HT29 colon
  GI50: 1.14 µM
  TGI: 3.22 µM
SW-620 colon
  GI50: 3.35 µM
  TGI: 10.7 µM
NCI-H522 lung
  GI50: 4.22 µM
  TGI: 11.8 µM
CAKI-1 renal
  GI50: 1.42 µM
  TGI: 8.42 µM
K-562 leukemia
  GI50: 1.64 µM
  TGI: 11.7 µM
U251 CNS
  GI50: 3.58 µM
  TGI: 10.7 µM
M14 melanoma
  GI50: 2.06 µM
  TGI: 8.82 µM
UACC-257 melanoma
  GI50: 6.03 µM
  TGI: 12.8 µM
NCI-H226 lung
  GI50: 5.3 µM
  TGI: 12.2 µM
NCI-H460 lung
  GI50: 1.66 µM
  TGI: 7.49 µM
HCT-116 colon
  GI50: 0.986 µM
  TGI: 3.01 µM
MDA-MB-468 breast
  GI50: 3.54 µM
  TGI: 11.4 µM
IGROV1 ovarian
  GI50: 2.76 µM
  TGI: 9.96 µM
MDA-MB-231 breast
  GI50: 4.63 µM
  TGI: 11.3 µM
ACHN renal
  GI50: 2.17 µM
  TGI: 8.6 µM
SK-OV-3 ovarian
  GI50: 7.36 µM
  TGI: 17.3 µM
CCRF-CEM leukemia
  GI50: 2.79 µM
  TGI: 13 µM
MOLT-4 leukemia
  GI50: 1.64 µM
  TGI: 8.26 µM
HL-60(TB) leukemia
  GI50: 4.65 µM
  TGI: 16.7 µM
SN12C renal
  GI50: 1.88 µM
  TGI: 7.17 µM
RXF 393 renal
  GI50: 2.09 µM
  TGI: 9.12 µM
UO-31 renal
  GI50: 1.87 µM
  TGI: 8.68 µM
A549 NSCLC
  GI50: 2.31 µM
  TGI: 9.53 µM
OVCAR-3 ovarian
  GI50: 4.02 µM
  TGI: 11 µM
MCF7 breast
  GI50: 1.69 µM
  TGI: 6.82 µM
PC-3 prostate
  GI50: 2.03 µM
  TGI: 9.08 µM
A498 renal
  GI50: 7.48 µM
  TGI: 15 µM
HS 578T breast
  GI50: 6.82 µM
  TGI: 23 µM
SNB-19 CNS
  GI50: 5.97 µM
  TGI: 13.2 µM
MALME-3M melanoma
  GI50: 7.09 µM
  TGI: 13.9 µM
SF-268 CNS
  GI50: 2.88 µM
  TGI: 11.2 µM
HOP-62 NSCLC
  GI50: 6.07 µM
  TGI: 13.1 µM
